Laboratory results: patent publication US20150328220A1, “METHODS OF TREATING CHRONIC KIDNEY DISEASE CHARACTERIZED BY MACROALBUMINURIA” (Concert Pharmaceuticals, Inc., priority 2014, published 2015)

Legend:
Type in all cases: in vivo, human
[1] = test system: patients with type 2 diabetic kidney disease and macroalbuminuria; assay: Phase 2 placebo-controlled clinical trial, 48 weeks: serum creatinine levels; settings: for patients who experienced a 50% or greater increase in serum creatinine levels: after 48 weeks
Protocol: (§1) A Phase 2 placebo-controlled clinical trial of Compound (V) was conducted in patients with type 2 diabetic kidney disease and macroalbuminuria. All patients enrolled in the clinical trial were concurrently treated with angiotensin modulators. The purpose of the trial was to compare Compound (V) to placebo in terms of safety and efficacy with respect to measures of renal function such as UACR, serum creatinine levels, and estimated glomerular filtration rate.
(§2) The clinical trial consists of three parts, two of which were completed and a third part that is on-going. Part 1 was a double-blind, parallel, two-arm, placebo-controlled study evaluating the safety and efficacy of 600 mg of Compound (V) twice daily for 24 weeks. 182 patients were enrolled in this first part of the trial and 151 patients completed Part 1. Part 2 was a blinded 24-week extension study in which all patients who completed Part 1 were eligible to continue receiving 600 mg of Compound (V) or placebo twice daily. 143 patients were enrolled in this part of the clinical trial and have completed dosing. 123 of the 143 patients that were enrolled in Part 2 of the clinical trial completed Part 2. The combined 48 weeks of data from Parts 1 and 2 of the clinical trial have been analyzed. 102 patients enrolled in Part 3 which is a 48 week open-label extension study that is on-going. All patients who completed Part 2 were eligible to receive 600 mg of Compound (V) twice daily.
The key criteria for patients to be included in the clinical trial were (a) eGFR from 23 to 89 mL/min/1.73 m^2, a measure of kidney function which indicates mild to moderately severe type 2 diabetic kidney disease; (b) having been on a stable angiotensin modulation regimen for a minimum of four weeks prior to initiating screening and nine weeks prior to initiating dosing; (c) blood pressure less than or equal to 145/90 mm Hg; (d) glycosylated hemoglobin A1c (HbA1c) less than or equal to 10.5%, and (e) UACR greater than or equal to 200 mg/g in male patients and 300 mg/g in female patients, ratios of albumin to creatinine that are indicative of substantial kidney damage in men and women, but not more than 5,000 mg/g, a ratio indicative of severe kidney disease.

urinary fibronectin = assay: Phase 2 placebo-controlled clinical trial, 48 weeks: urinary fibronectin (fibrotic biomarker)
Protocol: as §1
as §2, with “All patients who completed Part 2 were eligible to receive 600 mg of Compound (V) twice daily.” left out

plasma collagen IV = assay: Phase 2 placebo-controlled clinical trial, 48 weeks: plasma collagen IV (fibrotic biomarker); settings: week 48 (FIG. 3)
Protocol: as §1
as §2, with “All patients who completed Part 2 were eligible to receive 600 mg of Compound (V) twice daily.” left out

[2H]C([2H])([2H])[C@H](O)C([2H])([2H])CCCn1c(=O)c2c(ncn2C)n(C)c1=O [Compound (V)]
increase in mean serum creatinine level over the 48 weeks of treatment ([1]; 600 mg twice daily, 48 weeks, 65 patients, overall population, preliminary analysis): 0.13 mg/dL
patients who experienced a 50% or greater increase in serum creatinine levels ([1]; overall population, one out of 65 patients, p=0.026 vs placebo, post-hoc): 1.5%
patients who experienced a 50% or greater increase in serum creatinine levels ([1]; subpopulation having UACR greater than 850 mg/g, one out of 31 patients, p<0.0409 vs placebo): 3.1%
improvement in serum creatinine increase as compared to placebo ([1]; at 48 weeks, 600 mg twice daily, p=0.057 two-tailed): 38%
less urine fibronectin versus placebo (urinary fibronectin; week 48, overall population (FIG. 1)): 59%
decrease in urine fibronectin relative to placebo (urinary fibronectin; week 48, subpopulation having UACR greater than 850 mg/g, p<0.01 (FIG. 2)): 73%
less plasma collagen IV versus placebo (plasma collagen IV): 18%
